Like-named read-outs stand apart in the source and are kept apart here.
Assays:
Assay type in all cases: cell-based
[1] = tested on: HIV-1 gp160 (from the HXB2 HIV strain); experiment: Cell/cell fusion assay (HEK-293 expressing HIV-1 tat, rev, gp160 with HOS hCXCR4/hCCR5/hCD4/pHIV-LTR-luciferase cells); settings: Human immunodeficiency virus 1, HXB2, HEK293, 24 h, read-out: Fusion assay (pIC50), luciferase readout after 24 h (converted)
Source text: The complete coding sequences of HIV-1 tat (GenBank Accession No. X07861) and rev (GenBank Accession No. M34378) were cloned into pcDNA3.1 expression vectors containing G418 and hygromycin resistance genes, respectively. The complete coding sequence of the HIV-1 (HXB2 strain) gp160 envelope gene (nucleotide bases 6225-8795 of GenBank Accession No. K03455) was cloned into plasmid pCRII-TOPO. The three HIV genes were additionally inserted into the baculovirus shuttle vector, pFastBacMam1, under the transcriptional control of the CMV promoter. A construction of the pHIV-I LTR containing mutated NFkB sequences linked to the luciferase reporter gene was prepared by digesting pcDNA3.1, containing the G418 resistance gene, with Nru I and Bam HI to remove the CMV promoter. LTR-luc was then cloned into the Nru I/Bam HI sites of the plasmid vector. Plasmid preparations were performed after the plasmids were amplified in Escherichia coli strain DH5-alpha. The fidelity of the inserted sequences was confirmed by double-strand nucleotide sequencing using an ABI Prism Model 377 automated sequencer.
Recombinant BacMam baculoviruses were constructed from pFastBacMam shuttle plasmids by using the bacterial cell-based Bac-to-Bac system. Viruses were propagated in Sf9 (Spodoptera frugiperda) cells cultured in Hink's TNM-FH Insect media supplemented with 10% (v/v) fetal bovine serum and 0.1% (v/v) pluronic F-68 according to established protocols.
Human osteosarcoma (HOS) cells that naturally express human CXCR4 were transfected with human CCR5, human CD4 and the pHIV-LTR-luciferase plasmid using FuGENE 6 transfection reagent. Single cells were isolated and grown under selection condition in order to generate a stable HOS (hCXCR4/hCCR5/hCD4/pHIV-LTR-luciferase) clonal cell line. The cells were maintained in Dulbeccos modified Eagles media supplemented with 10% fetal calf serum (FCS), G418 (400 ug/ml), puromycin (1 ug/ml), mycophenolic acid (40 ug/ml), xanthine (250 ug/ml) and hypoxanthine (13.5 ug/ml) to maintain a selection pressure for cells expressing the LTR-luciferase, hCCR5 and hCD4, respectively. Human embryonic kidney (HEK-293) cells stably transfected to express the human macrophage scavenging receptor (Class A, type 1; GenBank Accession No. D90187), were maintained in DMEM/F-12 media (1:1) supplemented with 10% FCS and 1.5 ug/ml puromycin. The expression of this receptor by the HEK-293 cells enhances their ability to stick to tissue culture treated plasticware.
HEK-293 cells were harvested using enzyme-free cell dissociation buffer. The cells were resuspended in DMEM/F-12 media supplemented with 10% FCS and 1.5 ug/ml and counted. Tranductions were performed by direct addition of BacMam baculovirus containing insect cell media to cells. The cells were simultaneously transduced with BacMam baculovirus expressing HIV-1 tat, HIV-1 rev and HIV-1 gp160 (from the HXB2 HIV strain). Routinely an MOI of 10 of each virus was added to the media containing the cells. 2 mM butyric acid was also added to the cells at this stage to increase protein expression in transduced cells. The cells were subsequently mixed and seeded into a flask at 30 million cells per T225. The cells were incubated at 37° C., 5% CO2, 95% humidity for 24 h to allow for protein expression.
HEK and HOS cells were harvested in DMEM/F-12 media containing 2% FCS and DMEM media containing 2% FCS, respectively, with no selection agents added. Compounds were plated as 1 ul spots in 100% DMSO on a 96-well CulturPlate plates. HOS cells (50 ul) were added first to the wells, followed immediately by the HEK cells (50 ul). The final concentration of each cell type was 20,000 cells per well. Following these additions, the cells were returned to a tissue culture incubator (37° C.; 5% CO2/95% air) for an additional 24 h.
Following the 24 h incubation, total cellular luciferase activity was measured using the LucLite Plus assay kit (Packard, Meridien, Conn.). […]

[2] = Compound cytotoxicity in the absence of virus addition (CellTiter-Glo); settings: human; non-infected HOS cultures; read-out: Cytotox (pIC50) (converted)
Procedure: Compounds were profiled against two HIV-1 viruses, the M-tropic (CCR5 utilizing) Ba-L strain and the T-tropic (CXCR4 utilizing) IIIB strain. Both viruses were propagated in human peripheral blood lymphocytes. Compounds were tested for there ability to block infection of the HOS cell line (expressing hCXCR4/hCCR5/hCD4/pHIV-LTR-luciferase) by either HIV-1 Ba-L or HIV-1 IIIB. Compound cytotoxicity was also examined in the absence of virus addition.
HOS cells (expressing hCXCR4/hCCR5/hCD4/pHIV-LTR-luciferase) were harvested and diluted in Dulbeccos modified Eagles media supplemented with 2% FCS and non-essential amino acid to a concentration of 60,000 cells/ml. The cells were plated into 96-well plates (100 ul per well) and the plates were placed in a tissue culture incubator (37° C.; 5% CO2/95% air) for a period of 24 h.
Subsequently, 50 ul of the desired drug solution (4 times the final concentration) was added to each well and the plates were returned to the tissue culture incubator (37° C.; 5% CO2/95% air) for 1 h. Following this incubation 50 ul of diluted virus was added to each well (approximately 2 million RLU per well of virus). The plates were returned to the tissue culture incubator (37° C.; 5% CO2/95% air) and were incubated for a further 96 h.
Following this incubation the endpoint for the virally infected cultures was quantified following addition of Steady-Glo Luciferase assay system reagent (Promega, Madison, Wis.). Cell viability or non-infected cultures was measured using a CellTiter-Glo luminescent cell viability assay system (Promega, Madison, Wis.). All luminescent readouts are performed on a Topcount luminescence detector (Packard, Meridien, Conn.).

[3] = biological target: T1, human CXCR4 (Homo sapiens, UniProt P61073); experiment: Functional FLIPR assay (block of SDF-1 alpha induced [Ca2+]i change); settings: HEK-293 cells with human CXCR4 BacMam and Gqi5 BacMam; antagonism of SDF-1 alpha; read-out: Functional assay (pIC50) (converted)
T1 construct: expressed in transfected cells; host or cells: HEK-293 cells (stably expressing human macrophage scavenging receptor) transduced with human CXCR4 BacMam and Gqi5 BacMam baculoviruses
T1 sequence (P61073 whole entry): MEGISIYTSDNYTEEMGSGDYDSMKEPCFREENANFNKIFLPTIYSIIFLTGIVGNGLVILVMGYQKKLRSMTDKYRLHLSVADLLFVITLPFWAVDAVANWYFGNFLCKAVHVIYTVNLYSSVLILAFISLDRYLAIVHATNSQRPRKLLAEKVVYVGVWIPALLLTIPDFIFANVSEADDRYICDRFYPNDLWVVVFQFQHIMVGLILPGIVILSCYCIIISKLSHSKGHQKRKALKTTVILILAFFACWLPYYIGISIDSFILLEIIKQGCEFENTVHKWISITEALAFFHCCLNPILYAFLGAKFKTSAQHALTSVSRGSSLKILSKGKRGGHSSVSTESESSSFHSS
Procedure: Human embryonic kidney (HEK-293) cells were maintained and harvested as described above. Cells were plated in 96-well, black clear bottom, poly-lysine coated plates at a concentration of 40,000 cells per well in a final volume of 100 ul containing human CXCR4BacMam (MOI=25) and Gqi5 BacMam (MOI=12.5). The cells were incubated at 37° C., 5% CO2, 95% humidity for 24 h to allow for protein expression.
After the required incubation time the cells were washed once with 50 ul of fresh serum-free DMEM/F12 media containing probenicid. 50 ul of dye solution was then added to the cells (Calcium Plus Assay Kit Dye; Molecular Devices) was dissolved in 200 ml of the above probenicid/BSA containing media and incubated for 1 h. Cell plates were transferred to a Fluorometric Imaging Plate Reader (FLIPR). Upon addition the effect of the compounds on the change in [Ca^2+]i was examined to determine if the compounds were agonists or antagonists (ability to block SDF-1 alpha activity) at the CXCR4 receptor. IC50 values are determined and pKb values are calculated using the Leff and Dougall equation: KB=IC50/((2+([agonist]/EC50ˆb)ˆ1/b−1) Where IC50 is that defined by the antagonist concentration-response curve [agonist] is the EC80 concentration of agonist used EC50 is that defined by the agonist concentration-response curve b is the slope of the agonist concentration-response curve.

[4] = tested on: HIV-1 IIIB (T-tropic, CXCR4 utilizing); experiment: HOS HIV-1 infectivity assay
Outline: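 Blockade of infection is measured in HOS cells carrying hCD4, hCXCR4, hCCR5 and an HIV-LTR-driven luciferase, using virus grown in human peripheral blood lymphocytes. After 96 h, Steady-Glo luminescence reports infection, while CellTiter-Glo gauges cytotoxicity without virus.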

[5] = Human immunodeficiency virus 1, IIIB, as determined by the infectivity assay, strain not stated in Table 2, read-out: Activity Level
[6] = Human immunodeficiency virus 1, HIV-1 IIIB, HOS cells, 96 h, luciferase readout, read-out: HOS (3B)

SMILES | IC50 [1] [µM] | IC50 at 96 h [2] [µM] | IC50 [3] [µM] | IC50 [4, 5] [µM] | IC50 [4, 6] [µM]
CN(Cc1nc2cccc(C(=O)N3CCNCC3)c2[nH]1)C1CCCc2cccnc21 (stereo not shown) [Example 21, N-Methyl-N-{[4-(1-piperazinylcarbonyl)-1H-benzimidazol-2-yl]methyl}-5,6,7,8-tetrahydro-8-quinolinamine] | 0.0603 | > 100 | 0.0158 | < 0.1 | 0.046
CN1CCN(C(=O)c2cccc3[nH]c(CN(C)C4CCCc5cccnc54)nc23)CC1 (stereo not shown) [Example 22, N-Methyl-N-({4-[(4-methyl-1-piperazinyl)carbonyl]-1H-benzimidazol-2-yl}methyl)-5,6,7,8-tetrahydro-8-quinolinamine] | 1.05 | > 100 | 0.17 | 0.1 to 0.5 | 0.331
CN(Cc1nc2c(CNCCc3c[nH]cn3)cccc2[nH]1)C1CCCc2cccnc21 (stereo not shown) [Example 32, N-{[4-({[2-(1H-Imidazol-4-yl)ethyl]amino}methyl)-1H-benzimidazol-2-yl]methyl}-N-methyl-5,6,7,8-tetrahydro-8-quinolinamine] | 0.0851 | 7.59 | 0.0661 | < 0.1 | 0.045
CN(C)CCCNC(=O)c1cccc2[nH]c(CN(C)C3CCCc4cccnc43)nc12 (stereo not shown) [Example 29, N-[3-(Dimethylamino)propyl]-2-{[methyl(5,6,7,8-tetrahydro-8-quinolinyl)amino]methyl}-1H-benzimidazole-4-carboxamide] | 0.257 | > 100 | 0.132 | < 0.1 | 0.081
CN(Cc1nc2c(C(=O)NCCN)cccc2[nH]1)C1CCCc2cccnc21 (stereo not shown) [Example 26, N-(2-Aminoethyl)-2-{[methyl(5,6,7,8-tetrahydro-8-quinolinyl)amino]methyl}-1H-benzimidazole-4-carboxamide] | 0.049 | > 100 | 0.0209 | < 0.1 | 0.027
CN(Cc1nc2c(C(=O)NCCCN3CCCC3)cccc2[nH]1)C1CCCc2cccnc21 (stereo not shown) [Example 28, 2-{[Methyl(5,6,7,8-tetrahydro-8-quinolinyl)amino]methyl}-N-[3-(1-pyrrolidinyl)propyl]-1H-benzimidazole-4-carboxamide] | 0.148 | > 100 | 0.0575 | < 0.1 | 0.044
CCN(Cc1nc2cccc(C(=O)NCCCCN)c2[nH]1)C1CCCc2cccnc21 (stereo not shown) [Example 16, N-(4-Aminobutyl)-2-{[ethyl(5,6,7,8-tetrahydro-8-quinolinyl)amino]methyl}-1H-benzimidazole-4-carboxamide] | 0.724 | > 100 | 0.288 | 0.1 to 0.5 | 0.238
CCN(Cc1nc2cccc(C(=O)NCCCN)c2[nH]1)C1CCCc2cccnc21 (stereo not shown) [Example 15, N-(3-Aminopropyl)-2-{[ethyl(5,6,7,8-tetrahydro-8-quinolinyl)amino]methyl}-1H-benzimidazole-4-carboxamide] | 0.355 | > 100 | 0.12 | 0.1 to 0.5 | 0.141
CN(Cc1nc2c(C(=O)NCCc3cn(C)cn3)cccc2[nH]1)C1CCCc2cccnc21 (stereo not shown) [Example 24, N-[2-(1-Methyl-1H-imidazol-4-yl)ethyl]-2-{[methyl(5,6,7,8-tetrahydro-8-quinolinyl)amino]methyl}-1H-benzimidazole-4-carboxamide] | 0.145 | > 100 | 0.0123 | < 0.1 | 0.022
CN(Cc1nc2cccc(C(=O)N3CCNCC3)c2n1C)C1CCCc2cccnc21 (stereo not shown) [Example 8, N-Methyl-N-{[1-methyl-7-(1-piperazinylcarbonyl)-1H-benzimidazol-2-yl]methyl}-5,6,7,8-tetrahydro-8-quinolinamine] | 0.0537 | > 100 | 0.0339 | < 0.1 | 0.043
CN1CCN(c2cccc3nc(CN(C)C4CCCc5cccnc54)[nH]c23)CC1 (stereo not shown) [Example 35, N-methyl-N-{[4-(4-methyl-1-piperazinyl)-1H-benzimidazol-2-yl]methyl}-5,6,7,8-tetrahydro-8-quinolinamine] | 0.000389 | > 100 | 0.00589 | < 0.1 | 0.0016

Source: US20080045537A1, “Chemical Compounds” (priority 2004, published 2008)
